These results are taken from PMC12621043, “Un-LOK-ing a New Approach for Conformational Selective Targeting of STK10 (LOK)” (ACS Medicinal Chemistry Letters, 2025).

As a reminder, the ΔTm is the shift of the melting midpoint relative to a reference.

Common to all, as to assay: DSF Tm panel
What all share (type): binding
Holding throughout (settings): 10 μM compound

For one test, the target named is T1, DYRK2A (Homo sapiens, UniProt Q92630).
T1 construct: purchased in-house DSF kinase panel (SGC-style construct names; the trailing letter is the construct ID)
T1 sequence (Q92630 1-601): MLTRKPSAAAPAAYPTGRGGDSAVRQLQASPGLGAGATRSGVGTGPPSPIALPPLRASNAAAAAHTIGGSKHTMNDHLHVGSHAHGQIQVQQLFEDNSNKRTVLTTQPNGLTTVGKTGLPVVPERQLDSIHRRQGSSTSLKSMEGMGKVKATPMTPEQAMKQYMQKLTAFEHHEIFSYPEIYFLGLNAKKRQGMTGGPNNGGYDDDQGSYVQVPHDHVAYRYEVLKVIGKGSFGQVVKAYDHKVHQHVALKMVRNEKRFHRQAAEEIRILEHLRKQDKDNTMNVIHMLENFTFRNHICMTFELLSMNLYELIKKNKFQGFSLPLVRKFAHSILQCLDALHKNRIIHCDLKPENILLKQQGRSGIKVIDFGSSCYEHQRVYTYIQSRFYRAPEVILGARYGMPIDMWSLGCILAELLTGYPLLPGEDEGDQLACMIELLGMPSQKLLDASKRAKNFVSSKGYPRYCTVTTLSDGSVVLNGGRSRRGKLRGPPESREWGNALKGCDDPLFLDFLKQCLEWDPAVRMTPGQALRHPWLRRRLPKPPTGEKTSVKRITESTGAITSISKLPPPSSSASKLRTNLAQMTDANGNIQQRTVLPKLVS

The target of the next test is T2, OSR1A (Homo sapiens, UniProt O95747).
T2 construct: purchased in-house DSF kinase panel (SGC-style construct names; the trailing letter is the construct ID)
T2 sequence (O95747 17-291): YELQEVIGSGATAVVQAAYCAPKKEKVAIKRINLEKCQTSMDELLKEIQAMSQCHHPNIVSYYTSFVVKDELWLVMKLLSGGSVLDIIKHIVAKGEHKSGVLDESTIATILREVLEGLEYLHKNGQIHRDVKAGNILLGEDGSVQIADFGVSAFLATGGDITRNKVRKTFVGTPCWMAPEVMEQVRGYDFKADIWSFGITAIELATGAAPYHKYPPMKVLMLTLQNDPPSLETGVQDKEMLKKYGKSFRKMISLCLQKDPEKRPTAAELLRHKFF

The target in another test is T3, CAMKK2B (Homo sapiens, UniProt Q96RR4).
T3 construct: purchased in-house DSF kinase panel (SGC-style construct names; the trailing letter is the construct ID)
T3 sequence (Q96RR4 161-449): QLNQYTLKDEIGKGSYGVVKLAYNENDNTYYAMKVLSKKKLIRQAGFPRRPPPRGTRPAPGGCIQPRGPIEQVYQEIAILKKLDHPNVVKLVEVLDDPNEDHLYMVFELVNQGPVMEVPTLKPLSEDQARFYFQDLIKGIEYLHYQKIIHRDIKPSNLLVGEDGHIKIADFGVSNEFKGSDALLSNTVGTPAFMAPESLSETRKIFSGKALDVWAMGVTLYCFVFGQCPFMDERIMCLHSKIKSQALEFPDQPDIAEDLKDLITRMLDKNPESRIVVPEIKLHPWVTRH

A further test deals with T4, MAPK15A (MAPK15HSD) (Homo sapiens, UniProt Q8TD08).
T4 sequence (Q8TD08 13-304 limits assumed): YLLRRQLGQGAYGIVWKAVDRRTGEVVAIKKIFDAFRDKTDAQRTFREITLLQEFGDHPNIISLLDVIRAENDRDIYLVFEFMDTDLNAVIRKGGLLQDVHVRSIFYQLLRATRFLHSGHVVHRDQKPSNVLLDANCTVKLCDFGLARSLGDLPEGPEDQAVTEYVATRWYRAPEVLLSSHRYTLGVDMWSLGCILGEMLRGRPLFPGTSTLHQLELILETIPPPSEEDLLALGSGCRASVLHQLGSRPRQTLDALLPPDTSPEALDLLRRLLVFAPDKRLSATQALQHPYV

The next test addresses T5, MAP2K6A (Homo sapiens, UniProt P52564).
T5 construct: purchased in-house DSF kinase panel (SGC-style construct names; the trailing letter is the construct ID)
T5 sequence (P52564 53-314): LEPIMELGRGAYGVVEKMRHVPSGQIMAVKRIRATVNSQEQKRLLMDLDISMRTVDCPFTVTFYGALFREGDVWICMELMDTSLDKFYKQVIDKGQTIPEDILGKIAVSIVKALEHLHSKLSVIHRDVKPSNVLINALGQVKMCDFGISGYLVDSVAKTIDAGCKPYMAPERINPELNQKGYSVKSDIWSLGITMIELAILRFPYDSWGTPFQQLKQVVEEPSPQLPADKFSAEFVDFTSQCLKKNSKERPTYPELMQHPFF

The target of a further test is T6, STK39A (Homo sapiens, UniProt Q9UEW8).
T6 construct: purchased in-house DSF kinase panel (SGC-style construct names; the trailing letter is the construct ID)

In another test the target is T7, CDK2A (Homo sapiens, UniProt P24941).
T7 construct: purchased in-house DSF kinase panel (SGC-style construct names; the trailing letter is the construct ID)

The next test addresses T8, PKMYT1A (Homo sapiens, UniProt Q99640).
T8 construct: purchased in-house DSF kinase panel (SGC-style construct names; the trailing letter is the construct ID)
T8 sequence (Q99640 75-362): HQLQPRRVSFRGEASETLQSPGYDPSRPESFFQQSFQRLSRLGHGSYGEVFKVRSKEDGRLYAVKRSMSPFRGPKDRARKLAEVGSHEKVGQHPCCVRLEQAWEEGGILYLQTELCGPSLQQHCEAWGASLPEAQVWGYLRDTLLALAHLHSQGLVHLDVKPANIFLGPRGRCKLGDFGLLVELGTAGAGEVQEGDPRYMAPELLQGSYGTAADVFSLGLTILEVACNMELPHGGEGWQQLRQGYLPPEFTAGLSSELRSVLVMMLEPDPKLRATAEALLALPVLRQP

Another test concerns the target T9, UKL3A (ULK3A) (Homo sapiens, UniProt Q6PHR2).
T9 construct: purchased in-house DSF kinase panel (SGC-style construct names; the trailing letter is the construct ID)
T9 sequence (Q6PHR2 1-279): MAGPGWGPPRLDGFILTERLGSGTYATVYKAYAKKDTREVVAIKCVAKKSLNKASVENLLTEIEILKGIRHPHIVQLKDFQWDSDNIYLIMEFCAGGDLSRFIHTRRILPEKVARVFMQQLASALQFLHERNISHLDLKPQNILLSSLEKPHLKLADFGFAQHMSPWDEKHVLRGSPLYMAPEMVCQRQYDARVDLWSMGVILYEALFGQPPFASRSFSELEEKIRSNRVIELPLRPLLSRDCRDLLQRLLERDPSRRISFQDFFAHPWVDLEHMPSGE

In a further test the target is T10, CASKA (Homo sapiens, UniProt O14936).
T10 construct: purchased in-house DSF kinase panel (SGC-style construct names; the trailing letter is the construct ID)
T10 sequence (O14936 12-276): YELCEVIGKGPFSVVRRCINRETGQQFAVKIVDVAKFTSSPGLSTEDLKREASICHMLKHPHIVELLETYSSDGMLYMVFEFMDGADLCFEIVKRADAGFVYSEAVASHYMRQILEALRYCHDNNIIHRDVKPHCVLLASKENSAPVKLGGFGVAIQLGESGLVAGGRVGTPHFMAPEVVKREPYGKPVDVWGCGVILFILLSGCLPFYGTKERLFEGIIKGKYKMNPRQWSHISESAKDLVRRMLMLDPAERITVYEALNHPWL

The target in the next test is T11, MAPK9A (Homo sapiens, UniProt P45984).
T11 construct: purchased in-house DSF kinase panel (SGC-style construct names; the trailing letter is the construct ID)
T11 sequence (P45984 7-364): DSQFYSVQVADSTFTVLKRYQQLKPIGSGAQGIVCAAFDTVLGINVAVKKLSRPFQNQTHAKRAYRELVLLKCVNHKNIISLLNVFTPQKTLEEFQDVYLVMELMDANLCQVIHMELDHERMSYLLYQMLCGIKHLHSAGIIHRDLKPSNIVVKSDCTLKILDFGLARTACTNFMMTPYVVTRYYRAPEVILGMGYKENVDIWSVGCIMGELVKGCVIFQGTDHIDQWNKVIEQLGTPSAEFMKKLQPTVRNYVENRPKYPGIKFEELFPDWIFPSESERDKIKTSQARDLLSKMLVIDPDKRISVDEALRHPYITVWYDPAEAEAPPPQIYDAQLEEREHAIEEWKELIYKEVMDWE

Another test concerns the target T12, CSNK1DA (Homo sapiens, UniProt P48730).
T12 construct: purchased in-house DSF kinase panel (SGC-style construct names; the trailing letter is the construct ID)
T12 sequence (P48730 1-294): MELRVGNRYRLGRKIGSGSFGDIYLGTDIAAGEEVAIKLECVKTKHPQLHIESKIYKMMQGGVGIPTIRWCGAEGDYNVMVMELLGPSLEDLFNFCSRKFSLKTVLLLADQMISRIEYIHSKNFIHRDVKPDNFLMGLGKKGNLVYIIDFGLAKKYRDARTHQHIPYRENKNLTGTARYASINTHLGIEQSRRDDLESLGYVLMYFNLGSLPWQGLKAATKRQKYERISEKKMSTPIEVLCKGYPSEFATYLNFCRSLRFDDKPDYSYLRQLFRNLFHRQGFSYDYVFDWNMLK

In the next test the target is T13, GPRK5A (Homo sapiens, UniProt P34947).
T13 construct: purchased in-house DSF kinase panel (SGC-style construct names; the trailing letter is the construct ID)
T13 sequence (P34947 186-514): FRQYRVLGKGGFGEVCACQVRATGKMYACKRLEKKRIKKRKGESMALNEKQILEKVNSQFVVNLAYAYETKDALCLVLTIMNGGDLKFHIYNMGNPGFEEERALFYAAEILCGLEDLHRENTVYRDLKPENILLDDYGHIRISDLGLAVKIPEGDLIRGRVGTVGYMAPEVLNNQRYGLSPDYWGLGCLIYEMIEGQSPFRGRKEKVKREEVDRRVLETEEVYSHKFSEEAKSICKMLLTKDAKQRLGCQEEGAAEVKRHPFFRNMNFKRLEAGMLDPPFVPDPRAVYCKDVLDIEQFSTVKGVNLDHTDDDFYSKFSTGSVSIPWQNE

Turning to `O=C(NCc1ccccc1C(F)(F)F)Nc1ccc2cc1OCCOCCNc1ccn3ncc-2c3n1` [compound 27], the ΔTm at 10 µM on DYRK2A is 0.8 °C; at OSR1A it was 2.1 °C; at CAMKK2B, 1.5 °C; on MAPK15A (MAPK15HSD) it was 2.4 °C; on MAP2K6A, 1.2 °C; at STK39A it was 1.5 °C. The ΔTm at 10 µM on CDK2A is 1.9 °C; on PKMYT1A it was 0.7 °C; at UKL3A (ULK3A) it was 4.5 °C; on CASKA it was 1.6 °C; at MAPK9A, -0.1 °C; on CSNK1DA, -0.5 °C. For the same compound, the ΔTm at 10 µM on GPRK5A is 0.2 °C.
In the case of `O=C(NCc1ccc(C(F)(F)F)cc1)Nc1ccc2cc1OCCOCCNc1ccn3ncc-2c3n1` [compound 28], the ΔTm at 10 µM on DYRK2A came out at 1.2 °C; on OSR1A it was 2.2 °C; on CAMKK2B it was 1.8 °C; at MAPK15A (MAPK15HSD) it was 0.5 °C; on MAP2K6A it was 1.1 °C; on STK39A it was 1.3 °C. The ΔTm at 10 µM on CDK2A was 3.3 °C; on PKMYT1A it was 1.1 °C; on UKL3A (ULK3A) it was 4.3 °C; at CASKA, 0.5 °C; on MAPK9A it was -0.2 °C; on CSNK1DA it was -0.5 °C. Moreover, the thermal shift (ΔTm) at 10 µM at GPRK5A stood at 0.7 °C.
With `COc1ccccc1CNC(=O)Nc1ccc2cc1OCCOCCNc1ccn3ncc-2c3n1` [compound 29], the ΔTm at 10 µM on DYRK2A turned out to be 1.5 °C; on OSR1A, 0.9 °C; at CAMKK2B it was 1.5 °C; on MAPK15A (MAPK15HSD), 3.3 °C; at MAP2K6A, 0.7 °C; at STK39A it was 0.8 °C. The ΔTm at 10 µM was 1.7 °C on CDK2A; -0.1 °C on PKMYT1A; 4.2 °C on UKL3A (ULK3A); 1.1 °C on CASKA; -2.1 °C on MAPK9A; 0.2 °C at CSNK1DA. At GPRK5A, the ΔTm at 10 µM amounted to 0.4 °C.
On to `COc1cccc(CNC(=O)Nc2ccc3cc2OCCOCCNc2ccn4ncc-3c4n2)c1` [compound 30], for which the ΔTm at 10 µM came out at 3.1 °C at DYRK2A; 1.2 °C on OSR1A; 2 °C on CAMKK2B; 2.3 °C on MAPK15A (MAPK15HSD); 0.9 °C at MAP2K6A; 1.2 °C on STK39A. Besides, the ΔTm at 10 µM on CDK2A is 2.5 °C; at PKMYT1A, 0 °C; at UKL3A (ULK3A), 4.4 °C; on CASKA it was 0.9 °C; on MAPK9A it was -1.9 °C; at CSNK1DA it was 0.2 °C. Moreover, the ΔTm at 10 µM on GPRK5A worked out at 0.5 °C.
As for `COc1ccc(CNC(=O)Nc2ccc3cc2OCCOCCNc2ccn4ncc-3c4n2)cc1` [compound 31], the ΔTm at 10 µM was found to be 1.9 °C at DYRK2A; 1.3 °C at OSR1A; 1.8 °C on CAMKK2B; 4.1 °C on MAPK15A (MAPK15HSD); 1.2 °C at MAP2K6A; 1.2 °C on STK39A. For the same compound, the shift in melting temperature (ΔTm) at 10 µM was 3.3 °C at CDK2A; 0.3 °C at PKMYT1A; 6.1 °C on UKL3A (ULK3A); 1.8 °C on CASKA; -1.3 °C at MAPK9A; 0.1 °C on CSNK1DA. The ΔTm at 10 µM on GPRK5A was 0.9 °C.
Regarding `COc1ccc(CNC(=O)Nc2ccc3cc2OCCOCCNc2ccn4ncc-3c4n2)cc1F` [compound 32], the ΔTm at 10 µM at DYRK2A came out at 1.8 °C; at OSR1A, 1.7 °C; on CAMKK2B, 1.8 °C; on MAPK15A (MAPK15HSD), 2.5 °C; on MAP2K6A, 1 °C; on STK39A, 1.4 °C. Moreover, the ΔTm at 10 µM at CDK2A is 3.4 °C; at PKMYT1A, 0.4 °C; on UKL3A (ULK3A), 5.9 °C; on CASKA, 1.7 °C; on MAPK9A it was -0.6 °C; at CSNK1DA, -0.2 °C. In addition, the ΔTm at 10 µM on GPRK5A amounted to 0.7 °C.
On to `COc1cc(CNC(=O)Nc2ccc3cc2OCCOCCNc2ccn4ncc-3c4n2)ccc1F` [compound 33], for which the ΔTm at 10 µM on DYRK2A came to 3.9 °C; on OSR1A it was 1.5 °C; on CAMKK2B, 3.2 °C; on MAPK15A (MAPK15HSD), 3.3 °C; at MAP2K6A it was 1.1 °C; at STK39A, 1.2 °C. Also, the ΔTm at 10 µM is 2.7 °C at CDK2A; 0.2 °C at PKMYT1A; 4.5 °C at UKL3A (ULK3A); 0.9 °C on CASKA; -1.2 °C at MAPK9A; 0.1 °C at CSNK1DA. Also, the thermal shift (ΔTm) at 10 µM at GPRK5A came out at 2.2 °C.
Consider `C[C@H](NC(=O)Nc1ccc2cc1OCCOCCNc1ccn3ncc-2c3n1)c1ccccc1` [compound 34], for which the ΔTm at 10 µM at DYRK2A worked out at 4.3 °C; at OSR1A, 1.2 °C; at CAMKK2B it was 0.6 °C; at MAPK15A (MAPK15HSD), 2.1 °C; on MAP2K6A it was 0.8 °C; on STK39A, 1 °C. Besides, the ΔTm at 10 µM at CDK2A was 1 °C; on PKMYT1A it was -0.1 °C; at UKL3A (ULK3A), 4.1 °C; on CASKA it was 1 °C; at MAPK9A it was -2 °C; at CSNK1DA, -0.1 °C. For the same compound, the ΔTm at 10 µM on GPRK5A was determined as 0.2 °C.
As to `CN1CCN(C(=O)Nc2ccc3cc2OCCOCCNc2ccn4ncc-3c4n2)CC1` [compound 35], the ΔTm at 10 µM turned out to be 1.8 °C on DYRK2A; 0 °C at OSR1A; 2.9 °C on CAMKK2B; 2 °C at MAPK15A (MAPK15HSD); 0.4 °C on MAP2K6A; 1.6 °C at STK39A. For the same compound, the ΔTm at 10 µM at CDK2A is 1.4 °C; on PKMYT1A, 0.8 °C; at UKL3A (ULK3A) it was 2.7 °C; at CASKA, 0 °C; on MAPK9A, 0.4 °C; on CSNK1DA, 0.5 °C. The ΔTm at 10 µM at GPRK5A amounted to 0.8 °C.
